{"source": "PubChem BioAssay AID2060600", "about": "(Molecular Pharmacology Branch, DTP, NCI, 2025)", "tested_on": "996289-038-R-J1-PDC complex spheroid viability", "test": "Anticancer human tumor 996289-038-R-J1-PDC patient-derived colon adenocarcinoma cell line growth inhibition [CLK]", "details": "for IC50: curve of first compound; for viability, T/C: stronger effect = lower value", "from_the_text": "A high-throughput screen of multi-cell type tumor spheroids was designed to identify active combinations of […] and targeted small molecules. Complex spheroids include a stromal component modeled by human endothelial cells (HUVEC) and fibroblasts modeled by human mesenchymal stem cells (MSCs). The concentration ranges selected for each drug and investigational agent were based upon clinically achievable concentrations if the clinical Cmax of the agent was known.\nCompounds. The drugs and investigational agents: cirtuvivint (SM08502; NSC835563), CC-671 (NSC850746), vemurafenib (NSC761431), tapotoclax (NSC804041), sotorasib (NSC818433), adagrasib (NSC831453), MRTX-1133 (NSC836407), BAY2416964 (NSC825713), copanlisib (NSC816437), inavolisib (NSC800729), abemaciclib (NSC768073), osimertinib (NSC779217), entinostat (NSC756642), eltanexor (KPT-8602, NSC794443), venetoclax (NSC766270), ceralasertib (NSC777638), bortezomib (NSC756655), olaparib (NSC753686), talazoparib (NSC767125), alisertib (NSC759677), peposertib (NSC802822), gemcitabine (NSC613327), 5-fluorouracil (NSC19893), SN-38 (NSC673596), oxaliplatin (NSC266046), paclitaxel (NSC125973), and doxorubicin (NSC123127), were obtained from the National Cancer Institute (NCI) Developmental Therapeutics Program Chemical Repository. The FDA-approved anticancer drug set is available from the Developmental Therapeutics Program at https://dtp.cancer.gov/organization/dscb/obtaining/available plates.htm. […] The stock solutions were prepared in dimethyl sulfoxide (DMSO, Sigma-Aldrich, St. Louis, MO, cat. D2650), except for the platinum complexes which were prepared in saline (Quality Biological, Gaithersburg, MD, cat. 114-055-101), at 800-fold the tested concentration and stored at -70 degrees C prior to their use. All drugs and investigational agents were tested over a range starting from a high concentration at or near the clinical Cmax and decreasing in half-log increments. If the clinical Cmax for an agent had not been determined, the highest concentration tested was 10 microM.\nCell Culture. All cells were maintained in an incubator at 37 degrees C and 5% CO2 with 95% humidity. The PDC lines were cultured according to standard operating procedures established by the NCI PDMR. Briefly, all PDCs were thawed and cultured in Matrigel-coated flasks prepared with a working solution of 1X Ham's F-12 nutrient mix, without supplementation (Invitrogen, Waltham, MA, cat. 11765054), 100 U/mL penicillin-streptomycin (Invitrogen, cat. 15140122), and 2.5% Matrigel (Corning Inc., Corning, NY, cat. 354248) for the first three passages. The 947758-054-R-J2-PDC line was cultured in 6B/Colon 1A media, which includes advanced DMEM/F-12 (Thermo Fisher Scientific, cat. 12634028), 10 mM HEPES (Thermo Fisher Scientific, cat. 15630080), 1X GlutaMAX supplement (Thermo Fisher Scientific, cat. 35050061), 0.1 mg/mL primocin (InvivoGen, cat. ant-pm-2), 10% defined fetal bovine serum, heat inactivated (HyClone Laboratories Inc., cat. SH30070.03HI), 1.25 mM N-Acetyl-L-cysteine (Sigma-Aldrich, cat. A9165), 10 mM nicotinamide (Sigma-Aldrich, cat. N0636), 1X B-27 supplement (Thermo Fisher Scientific, cat. 17504044), 1X N-2 supplement (Thermo Fisher Scientific, cat. 17502048), and 10 microM Y-27632 dihydrochloride (Tocris Bioscience, cat. 1254). The 876862-298-R-J1-PDC was cultured in 6E media, which includes all 6B/Colon 1A media components plus 50% L-WRN conditioned media (ATCC, cat. CRL-3276), 50 ng/mL recombinant human EGF recombinant protein (hEGF; Thermo Fisher Scientific, cat. PHG0311), 10 ng/mL recombinant human fibroblast growth factor 10 (hGFG-10; PeproTech, cat. 100-26), 1 ng/mL recombinant human fibroblast growth factor 2 (hFGF-2; PeproTech, cat. 100-18B), and 1 µM prostaglandin E2 (PGE2; Tocris, cat. 2296). The 227483-062-R1-J1-PDC line was cultured in Panc media, containing all 6E components except hFGF-2, with the addition of 500 nM SB-431542 (Selleckchem, cat. S1067) and 10 nM gastrin (Tocris, cat. 3006). […]", "data": [{"compound": "O=C(c1cc(Cc2n[nH]c(=O)c3ccccc23)ccc1F)N1CCN(C(=O)C2CC2)CC1", "note": "+ CNC(=O)c1ccc(Nc2nc(OC3CCCC3)c3c(-c4ccc5nc(C)oc5c4)c[nH]c3n2)c(OC)c1;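 note: spheroids exposed to the agents for 7 days before readout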", "values": [{"measurement": "IC50", "setting": "second compound 0.0316 µM", "value": "> 10", "unit": "µM"}, {"measurement": "IC50", "setting": "second compound 0.1 µM", "value": "> 10", "unit": "µM"}, {"measurement": "IC50", "setting": "second compound 0.316 µM", "value": "> 10", "unit": "µM"}, {"measurement": "IC50", "setting": "second compound 1 µM", "value": "> 10", "unit": "µM"}, {"measurement": "IC50", "setting": "second compound 3.16 µM", "value": "> 10", "unit": "µM"}, {"measurement": "IC50", "setting": "second compound 10 µM", "value": "> 10", "unit": "µM"}, {"measurement": "viability, T/C", "setting": "second compound 0.0316 µM, first compound 0.0316 µM", "value": 126, "unit": "%"}, {"measurement": "viability, T/C", "setting": "second compound 0.0316 µM, first compound 0.1 µM", "value": 113, "unit": "%"}, {"measurement": "viability, T/C", "setting": "second compound 0.0316 µM, first compound 0.316 µM", "value": 113, "unit": "%"}, {"measurement": "viability, T/C", "setting": "second compound 0.0316 µM, first compound 1 µM", "value": 124, "unit": "%"}, {"measurement": "viability, T/C", "setting": "second compound 0.0316 µM, first compound 3.16 µM", "value": 120, "unit": "%"}, {"measurement": "viability, T/C", "setting": "second compound 0.0316 µM, first compound 10 µM", "value": 103, "unit": "%"}, {"measurement": "viability, T/C", "setting": "second compound 0.1 µM, first compound 0.0316 µM", "value": 122, "unit": "%"}, {"measurement": "viability, T/C", "setting": "second compound 0.1 µM, first compound 0.1 µM", "value": 121, "unit": "%"}, {"measurement": "viability, T/C", "setting": "second compound 0.1 µM, first compound 0.316 µM", "value": 116, "unit": "%"}, {"measurement": "viability, T/C", "setting": "second compound 0.1 µM, first compound 1 µM", "value": 117, "unit": "%"}, {"measurement": "viability, T/C", "setting": "second compound 0.1 µM, first compound 3.16 µM", "value": 114, "unit": "%"}, {"measurement": "viability, T/C", "setting": "second compound 0.1 µM, first compound 10 µM", "value": 115, "unit": "%"}, {"measurement": "viability, T/C", "setting": "second compound 0.316 µM, first compound 0.0316 µM", "value": 78.9, "unit": "%"}, {"measurement": "viability, T/C", "setting": "second compound 0.316 µM, first compound 0.1 µM", "value": 74.4, "unit": "%"}, {"measurement": "viability, T/C", "setting": "second compound 0.316 µM, first compound 0.316 µM", "value": 76.3, "unit": "%"}, {"measurement": "viability, T/C", "setting": "second compound 0.316 µM, first compound 1 µM", "value": 75.4, "unit": "%"}, {"measurement": "viability, T/C", "setting": "second compound 0.316 µM, first compound 3.16 µM", "value": 85.3, "unit": "%"}, {"measurement": "viability, T/C", "setting": "second compound 0.316 µM, first compound 10 µM", "value": 71.3, "unit": "%"}, {"measurement": "viability, T/C", "setting": "second compound 1 µM, first compound 0.0316 µM", "value": 70.8, "unit": "%"}, {"measurement": "viability, T/C", "setting": "second compound 1 µM, first compound 0.1 µM", "value": 65.8, "unit": "%"}, {"measurement": "viability, T/C", "setting": "second compound 1 µM, first compound 0.316 µM", "value": 64, "unit": "%"}, {"measurement": "viability, T/C", "setting": "second compound 1 µM, first compound 1 µM", "value": 60.6, "unit": "%"}, {"measurement": "viability, T/C", "setting": "second compound 1 µM, first compound 3.16 µM", "value": 69.3, "unit": "%"}, {"measurement": "viability, T/C", "setting": "second compound 1 µM, first compound 10 µM", "value": 61.3, "unit": "%"}, {"measurement": "viability, T/C", "setting": "second compound 3.16 µM, first compound 0.0316 µM", "value": 62.6, "unit": "%"}, {"measurement": "viability, T/C", "setting": "second compound 3.16 µM, first compound 0.1 µM", "value": 57.5, "unit": "%"}, {"measurement": "viability, T/C", "setting": "second compound 3.16 µM, first compound 0.316 µM", "value": 58.1, "unit": "%"}, {"measurement": "viability, T/C", "setting": "second compound 3.16 µM, first compound 1 µM", "value": 60.2, "unit": "%"}, {"measurement": "viability, T/C", "setting": "second compound 3.16 µM, first compound 3.16 µM", "value": 64, "unit": "%"}, {"measurement": "viability, T/C", "setting": "second compound 3.16 µM, first compound 10 µM", "value": 58.5, "unit": "%"}, {"measurement": "viability, T/C", "setting": "second compound 10 µM, first compound 0.0316 µM", "value": 62.6, "unit": "%"}, {"measurement": "viability, T/C", "setting": "second compound 10 µM, first compound 0.1 µM", "value": 59.4, "unit": "%"}, {"measurement": "viability, T/C", "setting": "second compound 10 µM, first compound 0.316 µM", "value": 61, "unit": "%"}, {"measurement": "viability, T/C", "setting": "second compound 10 µM, first compound 1 µM", "value": 58.3, "unit": "%"}, {"measurement": "viability, T/C", "setting": "second compound 10 µM, first compound 3.16 µM", "value": 61.1, "unit": "%"}, {"measurement": "viability, T/C", "setting": "second compound 10 µM, first compound 10 µM", "value": 52.1, "unit": "%"}]}]}
